Where two headings read alike, the source gives them in different places. Numbered stars: 1 amine (or outer) side, 2 acyl side, 3 side chain; on linkers, the order of the positions; unused ones are H or OH. Side chains are listed from the residue outwards. Ends that are not written are not given here. Peptide text beside a SMILES is read from it. * marks the point of attachment. X1 = C[C@H](NC(=O)[C@@H]1CCCN1C(=O)[C@@H](N)CSC1CC(=O)N(CCC(=O)*)C1=O)C(=O)N[C@@H](CCCCN)C(=O)O; C18 diacid = O=C(O)CCCCCCCCCCCCCCCCC(=O)*; γGlu = O=C(O)[C@H](CCC(=O)[*:2])N[*:1]; Fumaroyl = O=C(O)/C=C/C(=O)*; Suc = O=C(CCC(=O)[*:2])[*:1]; Lauroyl = CCCCCCCCCCCC(=O)*; AEEA = NCCOCCOCC(=O)O
Tests used:
human ETA receptor = molecular target: T1, human ETA receptor (Homo sapiens, UniProt P25101); assay: Selectivity of polypeptides on human ETA receptor (IP-One Gq kit, % of positive control ET1); format: cell-based
T1 construct: expressed in transfected cells; host or cells: 293T-17 cells, transient transfection
T1 sequence (P25101 21-427): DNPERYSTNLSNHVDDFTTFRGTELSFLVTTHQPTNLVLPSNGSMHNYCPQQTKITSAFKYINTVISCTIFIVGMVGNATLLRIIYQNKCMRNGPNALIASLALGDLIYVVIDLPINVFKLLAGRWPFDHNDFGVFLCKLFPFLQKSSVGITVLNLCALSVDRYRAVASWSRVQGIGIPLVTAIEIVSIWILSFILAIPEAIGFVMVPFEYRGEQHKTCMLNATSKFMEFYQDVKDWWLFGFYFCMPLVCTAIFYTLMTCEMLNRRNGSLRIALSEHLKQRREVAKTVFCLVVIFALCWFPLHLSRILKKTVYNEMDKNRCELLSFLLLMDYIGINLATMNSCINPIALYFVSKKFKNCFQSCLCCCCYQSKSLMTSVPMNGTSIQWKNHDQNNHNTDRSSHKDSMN
Procedure, shortened: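 293T-17 cells transiently transfected with human ETA receptor (48 h), 30,000 cells/well exposed to polypeptides for 1 h at 37°C; IP1 accumulation by HTRF (665/620 nm ratio). Activity given as % of ET1 at the same concentration after PBS-control subtraction.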

human ETB receptor = molecular target: T2, human ETB receptor (Homo sapiens, UniProt P24530); assay: Screening of polypeptides for activity on human ETB receptor (IP-One Gq kit, % of positive control IRL1620); format: cell-based
T2 construct: expressed in transfected cells; host or cells: 293T-17 cells, transient transfection
T2 sequence (P24530 27-442): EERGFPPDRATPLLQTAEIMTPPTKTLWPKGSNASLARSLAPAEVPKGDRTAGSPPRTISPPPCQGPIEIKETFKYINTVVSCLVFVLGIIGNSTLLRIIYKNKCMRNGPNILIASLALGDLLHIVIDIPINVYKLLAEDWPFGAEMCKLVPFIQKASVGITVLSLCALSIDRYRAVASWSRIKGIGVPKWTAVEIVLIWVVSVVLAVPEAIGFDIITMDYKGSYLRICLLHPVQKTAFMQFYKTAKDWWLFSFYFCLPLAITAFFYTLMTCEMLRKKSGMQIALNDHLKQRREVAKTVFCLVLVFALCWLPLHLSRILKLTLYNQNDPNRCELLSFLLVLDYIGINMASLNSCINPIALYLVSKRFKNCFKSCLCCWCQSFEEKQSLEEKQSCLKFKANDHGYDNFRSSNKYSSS
Procedure: 293T-17 cells were seeded at a density of 650,000 cells per well in a 6-well plate and cultured overnight in an incubator at 37°C and 5% CO2. Afterward, the cells were transfected with an expression vector, PCDNA3.1-hETB which contained a human ETB receptor gene, at a plasmid concentration of 2.5 µg per well. The cells were further cultured for 48 hours, and green fluorescence expression was observed under a fluorescence microscope. The cells were then digested with trypsin and counted. The activity of compounds on the human ETB receptor was determined with the IP-One Gq kit from Cisbio Bioassays. The cells were suspended in Stim Buffer provided in the kit and the cell suspension was added to a 96-well detection plate at 7 µL cell suspension (containing 30,000 cells) per well. The polypeptides to be screened for activity (prepared according to the Preparation Example of the invention) and polypeptide IRL1620 as positive control were dissolved in Stim B to be at a concentration of 2×, and 7 µL was added to the test cells, while 7 µL of PBS solution was added to the cells in the negative control wells. IRL1620 was used as the positive control polypeptide. The plate was sealed and incubated at 37°C for 1 hour in a cell culture incubator. Test wells, positive control wells, and PBS control wells were each added with 3 µL of IP1 d2 working solution and 3 µL of IP1 Tb cryptotate Antibody working solution. The plate was then sealed and incubated in the dark at room temperature (25°C±5°C) for 1 hour. The plate seal was removed, and the […] at 665 nm and 620 nm was measured with an ID5 microplate reader. The ratio of the acceptor emission signal to the donor emission signal, i.e., the value of (signal at 665 nm/signal at 620 nm)×10^4, was calculated for each well. With F1 representing the average value of values of signal at 665 nm/signal at 620 nm determined for the test sample at a specific concentration, F2 representing the average value of values of signal at 665 nm/signal at 620 nm determined for the positive control IRL1620 at the same concentration, and T1 representing the average value of values of signal at 665 nm/signal at 620 nm determined for the PBS negative control, the percentage of activity of the test polypeptide sample relative to the positive control sample IRL1620 is equal to (F1-T1)×100/(F2-T1). hETB sequence (NCBI accession number NM_000115.5).

[1] = read-out: hETAR agonist activity, percentage of activity relative to ET1

CCCCCCCCCCCC(=O)N[C@@H](CCC(=O)NCCOCCOCC(=O)NCCCC[C@H](NC(=O)[C@H](Cc1c[nH]cn1)NC(=O)[C@H](C)NC(=O)[C@H](Cc1ccccc1)NC(=O)[C@H](Cc1ccc(O)cc1)NC(=O)[C@@H](NC(=O)[C@H](C)NC(=O)[C@H](CCC(=O)O)NC(=O)[C@H](CCC(=O)O)NC(=O)[C@H](CC(=O)O)NC(=O)/C=C/C(=O)O)C(C)C)C(=O)N[C@@H](CC(=O)O)C(=O)N[C@H](C(=O)N[C@H](C(=O)N[C@@H](Cc1c[nH]c2ccccc12)C(=O)O)[C@@H](C)CC)C(C)C)C(=O)O [BX229-Na] (Fumaroyl-DEEAVYFAHK([AEEA-γGlu-Lauroyl])DVIW-OH)
activation at 100 µM (human ETA receptor; @100µM, read-out: hETAR agonist activity, percentage of activity relative to ET1): 0.68%

CC[C@H](C)[C@H](NC(=O)[C@H](CC(=O)O)NC(=O)[C@H](CCCCNC(=O)COCCOCCNC(=O)COCCOCCNC(=O)CC[C@H](NC(=O)CCCCCCCCCCCCCCCCC(=O)O)C(=O)O)NC(=O)[C@H](Cc1c[nH]cn1)NC(=O)[C@H](C)NC(=O)[C@H](Cc1ccccc1)NC(=O)[C@H](Cc1ccc(O)cc1)NC(=O)[C@@H](NC(=O)[C@H](C)NC(=O)[C@H](CCC(=O)O)NC(=O)[C@H](CCC(=O)O)NC(=O)[C@H](CC(=O)O)NC(=O)/C=C/C(=O)O)C(C)C)C(=O)N[C@H](C(=O)N[C@@H](Cc1c[nH]c2ccccc12)C(=O)O)[C@@H](C)CC [BX-34] (Fumaroyl-DEEAVYFAHK([AEEA-AEEA-γGlu-C18 diacid])DIIW-OH)
activation at 0.01 µM (human ETA receptor; [1]): -23.5%
activation at 0.1 µM (human ETA receptor; [1]): -11%

CC[C@H](C)[C@H](NC(=O)[C@H](CC(=O)O)NC(=O)[C@H](CCCCNC(=O)COCCOCCNC(=O)CCN1C(=O)CC(SC[C@H](N)C(=O)N2CCC[C@H]2C(=O)N[C@@H](C)C(=O)N[C@@H](CCCCN)C(=O)O)C1=O)NC(=O)[C@H](Cc1c[nH]cn1)NC(=O)[C@H](C)NC(=O)[C@H](Cc1ccccc1)NC(=O)[C@H](Cc1ccc(O)cc1)NC(=O)[C@@H](NC(=O)[C@H](C)NC(=O)[C@H](CCC(=O)O)NC(=O)[C@H](CCC(=O)O)NC(=O)[C@H](CC(=O)O)NC(=O)/C=C/C(=O)O)C(C)C)C(=O)N[C@H](C(=O)N[C@@H](Cc1c[nH]c2ccccc12)C(=O)O)[C@@H](C)CC (stereo partly shown) [BX-95] (Fumaroyl-DEEAVYFAHK([AEEA-X1])DIIW-OH)
activation at 10 µM (human ETA receptor; [1]): -9.81%
activation at 100 µM (human ETA receptor; [1]): -7.46%

CCCCCCCCCCCC(=O)N[C@@H](CCC(=O)NCCOCCOCC(=O)NCCCC[C@H](NC(=O)[C@H](Cc1c[nH]cn1)NC(=O)[C@H](C)NC(=O)[C@H](Cc1ccccc1)NC(=O)[C@H](Cc1ccc(O)cc1)NC(=O)[C@@H](NC(=O)[C@H](C)NC(=O)[C@H](CCC(=O)O)NC(=O)[C@H](CCC(=O)O)NC(=O)[C@H](CC(=O)O)NC(=O)/C=C/C(=O)O)C(C)C)C(=O)N[C@@H](CC(=O)O)C(=O)N[C@H](C(=O)N[C@H](C(=O)N[C@@H](Cc1c[nH]c2ccccc12)C(=O)O)[C@@H](C)CC)[C@@H](C)CC)C(=O)O [BX-225] (Fumaroyl-DEEAVYFAHK([AEEA-γGlu-Lauroyl])DIIW-OH)
activation at 10 µM (human ETA receptor; [1]): 0.52%
activation at 100 µM (human ETA receptor; [1]): 3.59%

Fum-DEEEVYFAHKDIIW (Fumaroyl-DEEEVYFAHKDIIW) [BX-52]
hETBR agonist activity, percentage of activity relative to IRL1620 (human ETB receptor): 121.00%@100nM
hETBR agonist activity, percentage of activity relative to IRL1620 (human ETB receptor; @10nM): 145.60%@10nM
hETAR agonist activity, percentage of activity relative to ET1 (human ETA receptor; @10nM): -2.49%@10nM
hETAR agonist activity, percentage of activity relative to ET1 (human ETA receptor; @100nM): -11.24%@100nM

Fum-DEEEVYFAHOrnDIIW [BX-59]
hETBR agonist activity, percentage of activity relative to IRL1620 (human ETB receptor): 93.46%@100nM
hETBR agonist activity, percentage of activity relative to IRL1620 (human ETB receptor; @10nM): 125.64%@10nM
hETAR agonist activity, percentage of activity relative to ET1 (human ETA receptor): -7.67%@100µM
hETAR agonist activity, percentage of activity relative to ET1 (human ETA receptor; @10µM): -10.61%@10µM

Suc-DE cyclo(CEEC)YFAHKDIIW (Suc-DECEECYFAHKDIIW; not fully specified (bridges); printed as Suc-DE cyclo(CEEC)YFAHKDIIW; also: cyclo(CEEC) in N-terminal extension, bond type not given here) [BX-57]
hETBR agonist activity, percentage of activity relative to IRL1620 (human ETB receptor): 121.58%@100nM
hETBR agonist activity, percentage of activity relative to IRL1620 (human ETB receptor; @10nM): 86.20%@10nM
hETAR agonist activity, percentage of activity relative to ET1 (human ETA receptor): -10.53%@100µM
hETAR agonist activity, percentage of activity relative to ET1 (human ETA receptor; @10µM): -29.04%@10µM
